Assays:
Format in all cases: biochemical
PLK1 = PLK1 (Homo sapiens, UniProt P53350); test: PLK1 Inhibition Assay I (radioactive-phosphate incorporation); settings: Ki(app); PLK1 Inhibition Assay I or II (table does not say which)
Summary of the method: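 Ki(app) values came from non-linear regression of initial rates after background subtraction, with phosphopeptide measured by phosphocellulose filter binding and scintillation counting. PLK1 at 2 nM was preincubated with compound (typically from 10 μM, 2-fold dilutions) for 10 min, then run 240 min at 25° C with 350 μM [γ-33P]ATP and 450 μM peptide substrate in HEPES pH 7.5 buffer.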

PLK2 = PLK2 (Homo sapiens, UniProt Q9NYY3); test: PLK2 Inhibition Assay (radioactive-phosphate incorporation); settings: selectivity ratio, PLK2 over PLK1
Description: (§1) The compounds of the present invention are evaluated as inhibitors of human PLK kinase using the following assays.
Compounds were screened for their ability to inhibit PLK2 using a radioactive-phosphate incorporation assay. Assays were carried out in a mixture of 25 mM HEPES (pH 7.5), 10 mM MgCl2, 0.1% BSA, and 2 mM DTT. Final substrate concentrations were 200 μM [γ-33P]ATP (57 mCi 33P ATP/mmol ATP, Amersham Pharmacia Biotech/Sigma Chemicals) and 300 μM peptide (KKKISDELMDATFADQEAK) [SEQ ID:3]. Assays were carried out at 25° C. in the presence of 25 nM PLK2. An assay stock buffer solution was prepared containing all of the reagents listed above, with the exception of ATP and the test compound of interest. 30 μL of the stock solution was placed in a 96 well plate followed by addition of 2 μL of DMSO stock containing serial dilutions of the test compound (typically starting from a final concentration of 10 μM with 2-fold serial dilutions) in duplicate (final DMSO concentration 5%). The plate was pre-incubated for 10 minutes at 25° C. and the reaction initiated by addition of 8 μL [γ-33P]ATP (final concentration 200 μM).
The reaction was stopped after 90 minutes by the addition of 100 μL 0.14 M phosphoric acid. A multiscreen phosphocellulose filter 96-well plate (Millipore, Cat No. MAPHN0B50) was pretreated with 100 μL 0.2M phosphoric acid prior to the addition of 125 μL of the stopped assay mixture. The plate was washed with 4×200 μL 0.2 M phosphoric acid. After drying, 100 μL Optiphase ‘SuperMix’ liquid scintillation cocktail (Perkin Elmer) was added to the well prior to scintillation counting (1450 Microbeta Liquid Scintillation Counter, Wallac).
(§2) After removing mean background values for all of the data points, Ki(app) data were calculated from non-linear regression analysis of the initial rate data using the Prism software package (GraphPad Prism version 3.0cx for Macintosh, GraphPad Software, San Diego Calif., USA).

PLK3 (S38-A340) = target: T1, PLK3 (S38-A340) (Homo sapiens, UniProt Q9H4B4); test: PLK3 Inhibition Assay (radioactive-phosphate incorporation); settings: selectivity ratio, PLK3 over PLK1
T1 construct: in the presence of 5 nM PLK3 (S38-A340)
Description: as §1
Compounds were screened for their ability to inhibit PLK3 using a radioactive-phosphate incorporation assay. Assays were carried out in a mixture of 25 mM HEPES (pH 7.5), 10 mM MgCl2, and 1 mM DTT. Final substrate concentrations were 75 μM [γ-33P]ATP (60 mCi 33P ATP/mmol ATP, Amersham Pharmacia Biotech/Sigma Chemicals) and 10 μM peptide (SAM68 protein Δ332-443). Assays were carried out at 25° C. in the presence of 5 nM PLK3 (S38-A340). An assay stock buffer solution was prepared containing all of the reagents listed above, with the exception of ATP and the test compound of interest. 30 μL of the stock solution was placed in a 96 well plate followed by addition of 2 μL of DMSO stock containing serial dilutions of the test compound (typically starting from a final concentration of 10 μM with 2-fold serial dilutions) in duplicate (final DMSO concentration 5%). The plate was pre-incubated for 10 minutes at 25° C. and the reaction initiated by addition of 8 μL [γ-33P]ATP (final concentration 75 μM).
The reaction was stopped after 60 minutes by the addition of 100 μL 0.14M phosphoric acid. A multiscreen phosphocellulose filter 96-well plate (Millipore, Cat No. MAPHN0B50) was pretreated with 100 μL 0.2M phosphoric acid prior to the addition of 125 μL of the stopped assay mixture. The plate was washed with 4×200 μL 0.2 M phosphoric acid. After drying, 100 μL Optiphase ‘SuperMix’ liquid scintillation cocktail (Perkin Elmer) was added to the well prior to scintillation counting (1450 Microbeta Liquid Scintillation Counter, Wallac).
as §2

T1 sequence (Q9H4B4 58-340 limits assumed): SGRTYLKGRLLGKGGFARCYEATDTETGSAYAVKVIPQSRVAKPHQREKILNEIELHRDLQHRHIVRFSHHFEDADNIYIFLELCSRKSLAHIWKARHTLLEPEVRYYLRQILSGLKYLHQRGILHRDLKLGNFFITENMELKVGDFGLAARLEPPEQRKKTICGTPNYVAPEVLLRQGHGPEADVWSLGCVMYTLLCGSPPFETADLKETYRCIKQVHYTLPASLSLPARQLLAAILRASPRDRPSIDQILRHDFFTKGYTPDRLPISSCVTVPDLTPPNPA
Sequence of PLK2 (Q9NYY3 whole entry): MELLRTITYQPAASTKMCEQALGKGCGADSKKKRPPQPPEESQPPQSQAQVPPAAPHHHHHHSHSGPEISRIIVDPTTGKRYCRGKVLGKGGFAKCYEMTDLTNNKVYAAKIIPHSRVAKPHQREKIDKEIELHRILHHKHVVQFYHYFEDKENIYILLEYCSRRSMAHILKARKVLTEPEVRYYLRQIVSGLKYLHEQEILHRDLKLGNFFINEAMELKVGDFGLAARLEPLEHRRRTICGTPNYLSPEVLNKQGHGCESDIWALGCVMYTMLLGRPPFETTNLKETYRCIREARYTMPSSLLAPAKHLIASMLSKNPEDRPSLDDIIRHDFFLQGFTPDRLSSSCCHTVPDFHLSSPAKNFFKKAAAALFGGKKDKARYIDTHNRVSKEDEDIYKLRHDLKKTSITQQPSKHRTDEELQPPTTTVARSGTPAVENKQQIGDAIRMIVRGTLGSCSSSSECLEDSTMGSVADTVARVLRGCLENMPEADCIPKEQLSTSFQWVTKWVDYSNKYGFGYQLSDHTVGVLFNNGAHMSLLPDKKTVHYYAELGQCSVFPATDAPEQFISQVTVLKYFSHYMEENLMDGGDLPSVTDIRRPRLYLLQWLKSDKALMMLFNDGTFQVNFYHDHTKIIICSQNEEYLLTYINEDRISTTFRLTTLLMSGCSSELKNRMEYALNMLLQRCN
Sequence of PLK1 (P53350 whole entry): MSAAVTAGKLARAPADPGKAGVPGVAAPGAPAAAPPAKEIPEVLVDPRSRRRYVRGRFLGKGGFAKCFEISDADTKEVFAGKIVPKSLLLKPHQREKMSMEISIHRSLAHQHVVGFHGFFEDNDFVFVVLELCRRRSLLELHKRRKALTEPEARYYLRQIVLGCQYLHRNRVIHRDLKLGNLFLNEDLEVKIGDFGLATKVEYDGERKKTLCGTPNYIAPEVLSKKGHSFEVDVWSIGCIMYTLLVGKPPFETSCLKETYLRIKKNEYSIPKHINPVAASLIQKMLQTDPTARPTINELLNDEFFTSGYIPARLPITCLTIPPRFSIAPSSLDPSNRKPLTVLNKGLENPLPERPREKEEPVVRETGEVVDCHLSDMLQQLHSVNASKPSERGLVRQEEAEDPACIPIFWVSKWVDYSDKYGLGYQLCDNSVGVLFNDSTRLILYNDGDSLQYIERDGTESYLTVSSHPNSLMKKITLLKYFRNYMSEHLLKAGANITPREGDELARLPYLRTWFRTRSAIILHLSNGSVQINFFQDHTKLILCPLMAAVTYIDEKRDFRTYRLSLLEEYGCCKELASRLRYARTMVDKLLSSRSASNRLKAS

## C[C@@H](Nc1ncc(C#N)c(-c2c[nH]c3ncc(C(F)(F)F)cc23)n1)c1cnc(N[C@H]2CCN(C)C2)nc1 [Compound I-268, 2-((R)-1-(2-((S)-1-methylpyrrolidin-3-ylamino)pyrimidin-5-yl)ethylamino)-4-(5-(trifluoromethyl)-1H-pyrrolo[2,3-b]pyridin-3-yl)pyrimidine-5-carbonitrile]
PLK1
  Ki: < 3 nM
PLK2
  Ki(PLK2)/Ki(PLK1): 293
PLK3 (S38-A340)
  Ki(PLK3)/Ki(PLK1): 141

## CC(Nc1ncc(C#N)c(-c2c[nH]c3ncc(C(F)(F)F)cc23)n1)c1ccc(N2CCCNCC2)cc1 (stereo not drawn) [Compound I-131, 2-(1-(4-(1,4-diazepan-1-yl)phenyl)ethylamino)-4-(5-(trifluoromethyl)-1H-pyrrolo[2,3-b]pyridin-3-yl)pyrimidine-5-carbonitrile]
PLK1
  Ki: < 3 nM
PLK2
  Ki(PLK2)/Ki(PLK1): 180
PLK3 (S38-A340)
  Ki(PLK3)/Ki(PLK1): 163
